ChEMBL document CHEMBL3639115, “Benzimidazole inhibitors of leukotriene production” (2014)

Biological target: T1, Arachidonate 5-lipoxygenase-activating protein (Homo sapiens, UniProt P20292)
T1 sequence (P20292 whole entry): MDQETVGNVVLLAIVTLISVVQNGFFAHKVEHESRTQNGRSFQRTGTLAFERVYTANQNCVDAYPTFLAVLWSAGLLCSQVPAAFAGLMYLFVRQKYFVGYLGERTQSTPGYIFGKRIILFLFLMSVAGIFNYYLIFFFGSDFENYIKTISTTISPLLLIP
Experiment: Scintillation Proximity Assay: Compounds are assessed for the ability to bind to FLAP in a binding assay that measures compound-specific displacement of an iodinated (125I) FLAP inhibitor via a Scintillation Proximity Assay format (adapted from S. Charleson et al., Mol. Pharmacol., 1992, 41, 873-879).Cell pellets produced from sf9 insect cells expressing recombinant human FLAP protein are resuspended in buffer A [15 mM Tris-HCl (pH 7.5), 2 mM MgCl2, 0.3 mM EDTA, 1 mM PMSF]. The cells are lysed with a Dounce homogenizer and the material is centrifuged at 10,000xg for 10 minutes. The supernatant is then collected and centrifuged at 100,000xg for 60 minutes. To prepare membrane protein for an assay, an aliquot of the 100,000xg pellet is resuspended in 1 ml of buffer A, Dounce homogenized, and finally subjected to polytron mixing (30 seconds). Membrane protein (25 ul, 5 ug) is mixed with WGA SPA beads (Amersham) and stirred for 1 h. To an assay plate (Perkin Elmer FlexiPlate) is added 25 ul of test compound.

## CC(C)(C)n1c(-c2ccccc2C(N)=O)nc2cc(-c3cnc(N)nc3)ccc21
  IC50: 0.0354 µM
